# From patent publication US10227323B2, “Glucosylceramide synthase inhibitors for the treatment of diseases” (BIOMARIN PHARMACEUTICAL INC., priority 2013, dated 2019)
# Target: T1, GCS (Canis lupus familiaris, UniProt A0A8I3MXG6)
# T1 sequence (A0A8I3MXG6 1-394): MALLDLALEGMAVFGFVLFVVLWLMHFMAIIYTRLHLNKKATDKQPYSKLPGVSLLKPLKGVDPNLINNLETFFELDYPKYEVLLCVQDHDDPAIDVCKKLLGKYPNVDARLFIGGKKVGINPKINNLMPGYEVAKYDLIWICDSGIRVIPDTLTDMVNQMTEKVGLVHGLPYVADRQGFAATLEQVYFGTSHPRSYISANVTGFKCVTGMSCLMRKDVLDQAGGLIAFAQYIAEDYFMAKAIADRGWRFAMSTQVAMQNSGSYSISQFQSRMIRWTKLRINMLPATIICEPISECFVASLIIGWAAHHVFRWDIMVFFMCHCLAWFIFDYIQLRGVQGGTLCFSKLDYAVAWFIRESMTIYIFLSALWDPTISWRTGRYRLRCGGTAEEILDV
# Assay: Assay 1: GCS Enzymatic Assay (MDCK cell lysate, C6-NBD-Ceramide, LC/MS)
# Format: biochemical, canine
# Settings: Table 2; data marked by *
# Summary of the method: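 LC/MS/MS measurement of glucosylceramide and NBD-ceramide after a 1 h, 37 °C reaction with 100 μM UDP-glucose and 10 μM C6-NBD-ceramide gave IC50s or percent inhibition.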
row,Compound,% inhibition generated from Assay 1
1,"O=C(N[C@H](CN1CCCC1)[C@H](O)c1ccc2c(c1)OCCO2)C(F)(F)c1ccc(-c2ccc(F)cc2)s1 [Compound 180, N-((1R,2R)-1-(2,3-dihydrobenzo[b][1,4]dioxin-6-yl)-1-hydroxy-3-(pyrrolidin-1-yl)propan-2-yl)-2,2-difluoro-2-(5-(4-fluorophenyl)thiophen-2-yl)acetamide]",A* (the compound had a % inhibition of a percent inhibition of greater than or equal to about 50%)
2,"O=C(N[C@H](CN1CCCC1)[C@H](O)c1cnc2c(c1)OCCO2)C(F)(F)c1cc2cc(Cl)ccc2o1 [Compound 185, 2-(5-chlorobenzofuran-2-yl)-N-((1R,2R)-1-(2,3-dihydro-[1,4]dioxino[2,3-b]pyridin-7-yl)-1-hydroxy-3-(pyrrolidin-1-yl)propan-2-yl)-2,2-difluoroacetamide]",B* (the compound had a % inhibition of greater than or equal to about 3% but less than about 50%)
3,"O=C(N[C@H](CN1CCCC1)[C@H](O)c1ccc2c(c1)OCCO2)C(F)(F)c1ccc(-c2ccccn2)cc1 [Compound 186, N-((1R,2R)-1-(2,3-dihydrobenzo[b][1,4]dioxin-6-yl)-1-hydroxy-3-(pyrrolidin-1-yl)propan-2-yl)-2,2-difluoro-2-(4-(pyridin-2-yl)phenyl)acetamide]",A* (the compound had a % inhibition of a percent inhibition of greater than or equal to about 50%)
4,"O=C(N[C@H](CN1CCC1)[C@H](O)c1cc(F)c2c(c1)OCCO2)C(=O)c1ccc2cc(Cl)ccc2c1 [Compound 188, N-((1R,2R)-3-(azetidin-1-yl)-1-(8-fluoro-2,3-dihydrobenzo[b][1,4]dioxin-6-yl)-1-hydroxypropan-2-yl)-2-(6-chloronaphthalen-2-yl)-2-oxoacetamide]",A* (the compound had a % inhibition of a percent inhibition of greater than or equal to about 50%)
5,"O=C(N[C@H](CN1CCCC1)[C@H](O)c1ccc2c(c1)OCCO2)C(=O)c1ccc(-c2ccc(F)cn2)cc1 [Compound 189, N-((1R,2R)-1-(2,3-dihydrobenzo[b][1,4]dioxin-6-yl)-1-hydroxy-3-(pyrrolidin-1-yl)propan-2-yl)-2-(4-(5-fluoropyridin-2-yl)phenyl)-2-oxoacetamide]",A* (the compound had a % inhibition of a percent inhibition of greater than or equal to about 50%)
6,"O=C(N[C@H](CN1CCCC1)[C@H](O)c1ccc2c(c1)OCCO2)/C(=N/O)c1ccc(-c2ccc(F)cn2)cc1 [Compound 190, (E)-N-((1R,2R)-1-(2,3-dihydrobenzo[b][1,4]dioxin-6-yl)-1-hydroxy-3-(pyrrolidin-1-yl)propan-2-yl)-2-(4-(5-fluoropyridin-2-yl)phenyl)-2-(hydroxyimino)acetamide]",A* (the compound had a % inhibition of a percent inhibition of greater than or equal to about 50%)
7,"CC(C)(O)COc1ccc([C@@H](O)[C@@H](CN2CCCC2)NC(=O)C(F)(F)C2Cc3ccc(Cl)cc3C2)cc1Cl (stereo partly drawn) [Compound 192, 2-(5-chloro-2,3-dihydro-1H-inden-2-yl)-N-((1R,2R)-1-(3-chloro-4-(2-hydroxy-2-methylpropoxy)phenyl)-1-hydroxy-3-(pyrrolidin-1-yl)propan-2-yl)-2,2-difluoroacetamide]",A* (the compound had a % inhibition of a percent inhibition of greater than or equal to about 50%)
8,"O=C(N[C@H](CN1CCCC1)[C@H](O)c1ccc2c(c1)OCCO2)C(=O)c1ccc(-c2ccccn2)cc1 [Compound 195, N-((1R,2R)-1-(2,3-dihydrobenzo[b][1,4]dioxin-6-yl)-1-hydroxy-3-(pyrrolidin-1-yl)propan-2-yl)-2-oxo-2-(4-(pyridin-2-yl)phenyl)acetamide]",A* (the compound had a % inhibition of a percent inhibition of greater than or equal to about 50%)
9,"O=C(N[C@H](CN1CCCC1)[C@H](O)c1cc(F)c2c(c1)OCCO2)C(F)(F)c1cn2ccccc2n1 [Compound 196, 2,2-difluoro-N-((1R,2R)-1-(8-fluoro-2,3-dihydrobenzo[b][1,4]dioxin-6-yl)-1-hydroxy-3-(pyrrolidin-1-yl)propan-2-yl)-2-(imidazo[1,2-a]pyridin-2-yl)acetamide]",B* (the compound had a % inhibition of greater than or equal to about 3% but less than about 50%)
10,"CN1CCCc2cc(CCC(F)(F)C(=O)N[C@H](CN3CCCC3)[C@H](O)c3ccc4c(c3)OCCO4)ccc21 [Compound 198, N-((1R,2R)-1-(2,3-dihydrobenzo[b][1,4]dioxin-6-yl)-1-hydroxy-3-(pyrrolidin-1-yl)propan-2-yl)-2,2-difluoro-4-(1-methyl-1,2,3,4-tetrahydroquinolin-6-yl)butanamide]",A* (the compound had a % inhibition of a percent inhibition of greater than or equal to about 50%)
11,"O=C(N[C@H](CN1CCCC1)[C@H](O)c1ccc(OC2CC2)c(Cl)c1)C(F)(F)c1cn2ccccc2n1 [Compound 199, N-((1R,2R)-1-(3-chloro-4-cyclopropoxyphenyl)-1-hydroxy-3-(pyrrolidin-1-yl)propan-2-yl)-2,2-difluoro-2-(imidazo[1,2-a]pyridin-2-yl)acetamide]",B* (the compound had a % inhibition of greater than or equal to about 3% but less than about 50%)
12,"O=C(N[C@H](CN1CCCC1)[C@H](O)c1ccc2c(c1)OCCO2)C(F)(F)c1cccc(Oc2ccc(F)cc2)c1 [Compound 201, N-((1R,2R)-1-(2,3-dihydrobenzo[b][1,4]dioxin-6-yl)-1-hydroxy-3-(pyrrolidin-1-yl)propan-2-yl)-2,2-difluoro-2-(3-(4-fluorophenoxy)phenyl)acetamide]",A* (the compound had a % inhibition of a percent inhibition of greater than or equal to about 50%)

# Same assay, conditions: Table 2; data without asterisk; read-out: IC50 (nM) generated from Assay 1
row,Compound,IC50 [nM]
1,"O=C(N[C@H](CN1CCCC1)[C@H](O)c1ccc2c(c1)OCCO2)/C(=N/O)c1ccc(-c2ccc(F)cc2)s1 [Compound 181, (Z)-N-((1R,2R)-1-(2,3-dihydrobenzo[b][1,4]dioxin-6-yl)-1-hydroxy-3-(pyrrolidin-1-yl)propan-2-yl)-2-(5-(4-fluorophenyl)thiophen-2-yl)-2-(hydroxyimino)acetamide]",< 50
2,"O=C(N[C@H](CN1CCCC1)[C@H](O)c1ccc(OC2CC2)c(Cl)c1)C(F)(F)c1ccc(-c2ccccn2)cc1 [Compound 182, N-((1R,2R)-1-(3-chloro-4-cyclopropoxyphenyl)-1-hydroxy-3-(pyrrolidin-1-yl)propan-2-yl)-2,2-difluoro-2-(4-(pyridin-2-yl)phenyl)acetamide]",< 50
3,"O=C(N[C@H](CN1CCCC1)[C@H](O)c1cc(F)c2c(c1)OCCO2)C(F)(F)c1ccc(-c2ccc(F)cn2)cc1 [Compound 183, 2,2-difluoro-N-((1R,2R)-1-(8-fluoro-2,3-dihydrobenzo[b][1,4]dioxin-6-yl)-1-hydroxy-3-(pyrrolidin-1-yl)propan-2-yl)-2-(4-(5-fluoropyridin-2-yl)phenyl)acetamide]",< 50
4,"O=C(N[C@H](CN1CCCC1)[C@H](O)c1ccc(OC2CC2)c(Cl)c1)/C(=N/O)c1ccc(-c2ccc(F)cn2)cc1 [Compound 184, (E)-N-((1R,2R)-1-(3-chloro-4-cyclopropoxyphenyl)-1-hydroxy-3-(pyrrolidin-1-yl)propan-2-yl)-2-(4-(5-fluoropyridin-2-yl)phenyl)-2-(hydroxyimino)acetamide]",< 50
5,"O=C(N[C@H](CN1CCCC1)[C@H](O)c1cc(F)c2c(c1)OCCO2)C(F)(F)c1ccc(-c2ccccn2)cc1 [Compound 187, 2,2-difluoro-N-((1R,2R)-1-(8-fluoro-2,3-dihydrobenzo[b][1,4]dioxin-6-yl)-1-hydroxy-3-(pyrrolidin-1-yl)propan-2-yl)-2-(4-(pyridin-2-yl)phenyl)acetamide]",< 50
6,"O=C(N[C@H](CN1CCC1)[C@H](O)c1cc(F)c2c(c1)OCCO2)/C(=N/O)c1ccc2cc(Cl)ccc2c1 [Compound 191, (E)-N-((1R,2R)-3-(azetidin-1-yl)-1-(8-fluoro-2,3-dihydrobenzo[b][1,4]dioxin-6-yl)-1-hydroxypropan-2-yl)-2-(6-chloronaphthalen-2-yl)-2-(hydroxyimino)acetamide]",< 50
7,"CC(C)(O)COc1ccc([C@@H](O)[C@@H](CN2CCCC2)NC(=O)C(=O)c2ccc(-c3ccc(F)cc3)cc2)cc1Cl [Compound 194, N-((1R,2R)-1-(3-chloro-4-(2-hydroxy-2-methylpropoxy)phenyl)-1-hydroxy-3-(pyrrolidin-1-yl)propan-2-yl)-2-(4′-fluoro-[1,1′-biphenyl]-4-yl)-2-oxoacetamide]",< 50
8,"O=C(N[C@H](CN1CCCC1)[C@H](O)c1ccc2c(c1)OCCO2)C(=O)c1cccc(Oc2ccc(F)cc2)c1 [Compound 197, N-((1R,2R)-1-(2,3-dihydrobenzo[b][1,4]dioxin-6-yl)-1-hydroxy-3-(pyrrolidin-1-yl)propan-2-yl)-2-(3-(4-fluorophenoxy)phenyl)-2-oxoacetamide]",< 50
9,"O=C(N[C@H](CN1CCCC1)[C@H](O)c1cc(F)c2c(c1)OCCO2)C(=O)c1ccc(N2CCCCC2)cc1 [Compound 200, N-((2R)-1-(8-fluoro-2,3-dihydrobenzo[b][1,4]dioxin-6-yl)-1-hydroxy-3-(pyrrolidin-1-yl)propan-2-yl)-2-oxo-2-(4-(piperidin-1-yl)phenyl)acetamide]",< 50
